The supplement of paper PMC8617591

How the values were obtained:
[1] = system: Mycobacterium tuberculosis Erdman (autoluminescent); test: total FIC50 (Loewe) at 50% inhibition, three-drug combination (log2); higher = more antagonistic
Procedure: (§1)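 DiaMOND equipotent three-drug combination dose responses (10 doses, 1.5- or 2-fold spacing, centred on IC90) against autoluminescent M. tuberculosis Erdman in 8 in vitro models. Read-out is OD600, or luminescence for the intracellular and dormancy models, normalised to untreated wells. Hill-fit Einf, AUC25 and GRinf are potency metrics; FIC50 and FIC90 are total Loewe fractional inhibitory concentrations as log2 (negative = synergy).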

[2] = system: Mycobacterium tuberculosis Erdman (autoluminescent); test: total FIC90 (Loewe) at 90% inhibition, three-drug combination (log2); higher = more antagonistic
Procedure: as §1

[3] = system: Mycobacterium tuberculosis Erdman (autoluminescent); test: Einf, fitted maximum growth inhibition of three-drug combination (fraction); higher = stronger maximal inhibition
Procedure: as §1

[4] = system: Mycobacterium tuberculosis Erdman (autoluminescent); test: AUC25, normalised area under dose response up to IC25 (three-drug combination) (fraction (0-1)); higher = more potent at low dose
Procedure: as §1

[5] = system: Mycobacterium tuberculosis Erdman (autoluminescent); test: GRinf, maximum normalised growth rate inhibition (three-drug combination) (unitless (-1 to 1)); higher = less effect (negative = killing)
Procedure: as §1

COc1nc2ccc(Br)cc2cc1[C@@H](c1ccccc1)[C@@](O)(CCN(C)C)c1cccc2ccccc12 [bedaquiline] + CC[C@@H](CO)NCCN[C@@H](CC)CO [ethambutol] + CO[C@H]1/C=C/O[C@@]2(C)Oc3c(C)c(O)c4c(O)c(c(/C=N/N5CCN(C6CCCC6)CC5)c(O)c4c3C2=O)NC(=O)/C(C)=C\C=C\[C@H](C)[C@H](O)[C@@H](C)[C@@H](O)[C@@H](C)[C@H](OC(C)=O)[C@@H]1C [rifapentine]
Conditions | AUC25, [4] | Einf, [3] | GRinf, [5] | total FIC50, [1] | total FIC90, [2]
in vitro model: acidic pH 5.7, time point: constant (~7 days, model-specific) | 0.114 | 0.961 | -0.423 | -0.16 | –
in vitro model: acidic pH 5.7, time point: terminal (~4-5 doublings, model-specific) | 0.0469 | 0.98 | -0.179 | 0.232 | -0.455
in vitro model: intracellular J774, time point: constant = terminal | – | 0.947 | -0.165 | – | -1.85

Conditions | AUC25, [4] | Einf, [3] | GRinf, [5] | total FIC50, [1] | total FIC90, [2]
in vitro model: butyrate, time point: constant (~7 days, model-specific) | 0.0669 | 0.935 | -0.0718 | 0.486 | –
in vitro model: butyrate, time point: terminal (~4-5 doublings, model-specific) | 0.0551 | 0.972 | -0.0579 | 0.432 | -0.198
in vitro model: cholesterol 0.05 mM, time point: constant (~7 days, model-specific) | 0.0736 | 0.7 | -0.229 | 0.896 | –
in vitro model: cholesterol 0.05 mM, time point: terminal (~4-5 doublings, model-specific) | 0.0689 | 0.896 | -0.175 | 1 | –
in vitro model: cholesterol-high 0.2 mM, time point: constant (~7 days, model-specific) | 0.0263 | 0.996 | -0.736 | 1.12 | –
in vitro model: cholesterol-high 0.2 mM, time point: terminal (~4-5 doublings, model-specific) | 0.0449 | 0.998 | -0.697 | 1.03 | 1.09
in vitro model: dormancy (butyrate + nitrate, low O2), time point: constant (~7 days, model-specific) | 0.125 | 0.891 | 0.428 | 1.06 | –
in vitro model: dormancy (butyrate + nitrate, low O2), time point: terminal (~4-5 doublings, model-specific) | 0.105 | 0.982 | -0.0507 | 0.39 | 0.33
in vitro model: standard 7H9 glycerol, time point: constant = terminal | 0.0577 | 0.931 | 0.00717 | 0.213 | –
in vitro model: valerate, time point: constant (~7 days, model-specific) | 0.0547 | 0.887 | -0.0669 | 0.793 | –
in vitro model: valerate, time point: terminal (~4-5 doublings, model-specific) | 0.0403 | 0.948 | -0.0709 | 0.823 | -0.0548

COc1nc2ccc(Br)cc2cc1[C@@H](c1ccccc1)[C@@](O)(CCN(C)C)c1cccc2ccccc12 [bedaquiline] + CC[C@@H](CO)NCCN[C@@H](CC)CO [ethambutol] + CO[C@H]1/C=C/O[C@@]2(C)Oc3c(C)c(O)c4c(O)c(c(/C=N/N5CCN(C)CC5)c(O)c4c3C2=O)NC(=O)/C(C)=C\C=C\[C@H](C)[C@H](O)[C@@H](C)[C@@H](O)[C@@H](C)[C@H](OC(C)=O)[C@@H]1C [rifampicin]
Conditions | AUC25, [4] | Einf, [3] | GRinf, [5] | total FIC50, [1] | total FIC90, [2]
in vitro model: acidic pH 5.7, time point: constant (~7 days, model-specific) | 0.101 | 0.925 | -0.517 | 0.255 | –
in vitro model: acidic pH 5.7, time point: terminal (~4-5 doublings, model-specific) | 0.0469 | 0.975 | -0.16 | 0.433 | -0.353
in vitro model: intracellular J774, time point: constant = terminal | – | 0.946 | -0.188 | – | -2.17

Conditions | AUC25, [4] | Einf, [3] | GRinf, [5] | total FIC50, [1] | total FIC90, [2]
in vitro model: butyrate, time point: constant (~7 days, model-specific) | 0.0854 | 0.947 | -0.116 | 0.298 | –
in vitro model: butyrate, time point: terminal (~4-5 doublings, model-specific) | 0.0653 | 0.977 | -0.0944 | 0.293 | -0.34
in vitro model: cholesterol 0.05 mM, time point: constant (~7 days, model-specific) | 0.0934 | 0.696 | -0.186 | 0.99 | –
in vitro model: cholesterol 0.05 mM, time point: terminal (~4-5 doublings, model-specific) | 0.0802 | 0.866 | -0.177 | 0.757 | –
in vitro model: cholesterol-high 0.2 mM, time point: constant (~7 days, model-specific) | 0.0442 | 0.972 | -0.609 | 0.869 | –
in vitro model: cholesterol-high 0.2 mM, time point: terminal (~4-5 doublings, model-specific) | 0.0471 | 0.999 | -0.732 | 0.649 | 0.577
in vitro model: dormancy (butyrate + nitrate, low O2), time point: constant (~7 days, model-specific) | 0.0847 | 0.848 | 0.506 | 0.302 | –
in vitro model: dormancy (butyrate + nitrate, low O2), time point: terminal (~4-5 doublings, model-specific) | 0.0367 | 0.985 | -0.0366 | 0.467 | -0.773
in vitro model: standard 7H9 glycerol, time point: constant = terminal | 0.0718 | 0.936 | -0.0564 | 0.162 | –
in vitro model: valerate, time point: constant (~7 days, model-specific) | 0.0696 | 0.904 | -0.043 | 0.575 | –
in vitro model: valerate, time point: terminal (~4-5 doublings, model-specific) | 0.0304 | 0.944 | -0.0659 | 0.707 | -0.531
